What all share (format): in vivo, human
One experiment concerns sweetness. Description: Blueberry sensory panels; PLS analysis, sweetness (Table 7). As to conditions: for PLS Coefficient: response Sweetness; for independent enhancement of perception of sweetness: multivariate regression analysis. The protocol:
Sensory analysis was conducted similar to described above for tomatoes and strawberries in Examples 1 and 3. […] Panelists were trained with the scaling methods and were encouraged to return for the remainder of the study. Panelists rated overall liking, texture liking, sweetness, sourness, and flavor intensity using hedonic general Labeled Magnitude Scales (gLMS) (−100 to +100; −100=greatest disliking of any kind, +100=greatest liking of any kind) and intensity gLMS (0 to +100; 0=no sensation, 100=most intense sensation of any kind), which allow for improved comparison between panelists and between years (see Bartoshuk, L. M., et al., 2004 and Bartoshuk, L. M., et al., 2005). Panelists were also asked to rate the intensity of taste and flavor sensations of a hypothetical ideal blueberry on this scale. Each panelist received two to four berries of five to six genotypes in a single panel in a Williams design, which was generated by Compusense 5.6 (Compusense Inc., Guelph, Ontario, Canada). They were asked to eat the blueberries of each genotype at once, and to take a bite of cracker and sip of water in between samples. Ratings were recorded using Compusense software.
Soluble solids content (SSC), titratable acidity (TA), and volatiles were quantified as described above for tomato and strawberries. The volatiles were collected for two hours via dynamic headspace with HaySep Q 80-100 porous polymer adsorbent (Valco Instruments Company Inc., Houston, Tex.) and eluted with methylene chloride and nonyl acetate as an elution standard. Elutions were run on an Agilent 7890A Gas Chromatograph Flame Ionization Detector (GC-FID) DB-5 column (30 m length×[…]) for quantification and on an Agilent 7890A Gas Chromatograph coupled to an Agilent 5977A Mass Selective Detector (GC/MSD) for qualification (Agilent, Santa Clara, Calif.). Integrated peak area of each signal was normalized for elution, fitted to relative pure chemical response, corrected for sample mass, and expressed as nanograms per gram fresh weight per hour (ng gFW-1 h-1). Response fitting was calculated using the response factor of pure chemical standards (Sigma-Aldrich, St. Louis, Mo.) run on the same instrument.
Pair-wise correlations and significance between sensory measurements and primary bio-chemical components were calculated, with panelist as a random effect. Least Square Means (LSMeans) of the sensory data for each sample were obtained to account of the random effect of panelist. A partial least squares (PLS) analysis was constructed in JMP1 Pro 10 (SAS Institute Inc., Cary, N.C.) to reveal effectors of sensory ratings (see, e.g., Togari N., et al., 1995; Hough, G., et al., 1996; deKermadec, F., et al., 1997; Toscas, P. J., et al., 1999; and Tenenhaus, M., et al., 2005). The response variables (Y) considered corresponded to LSMeans of overall liking, sweetness, sourness, and blueberry flavor intensity. Glucose, fructose, sucrose, TA, pH, and 52 volatile compounds were considered as explanatory variables (X). The inclusion of texture liking was evaluated independently given that no explanatory physical measure was made for sample texture. […] The model was created without texture for analysis.
• Top six and bottom six biochemical measures explaining sensory responses as determined by partial least squares (PLS) analysis. […]

For the next experiment, the system named is sourness. In words: Blueberry sensory panels; PLS analysis, sourness (Table 7). As to conditions: response Sourness. The source says:
Panelists were trained with the scaling methods and were encouraged to return for the remainder of the study. […] Panelists were also asked to rate the intensity of taste and flavor sensations of a hypothetical ideal blueberry on this scale. Each panelist received two to four berries of five to six genotypes in a single panel in a Williams design, which was generated by Compusense 5.6 (Compusense Inc., Guelph, Ontario, Canada). They were asked to eat the blueberries of each genotype at once, and to take a bite of cracker and sip of water in between samples. Ratings were recorded using Compusense software.
Soluble solids content (SSC), titratable acidity (TA), and volatiles were quantified as described above for tomato and strawberries. […] Integrated peak area of each signal was normalized for elution, fitted to relative pure chemical response, corrected for sample mass, and expressed as nanograms per gram fresh weight per hour (ng gFW-1 h-1). Response fitting was calculated using the response factor of pure chemical standards (Sigma-Aldrich, St. Louis, Mo.) run on the same instrument.
Pair-wise correlations and significance between sensory measurements and primary bio-chemical components were calculated, with panelist as a random effect. […] The inclusion of texture liking was evaluated independently given that no explanatory physical measure was made for sample texture. […]

The next experiment relates to overall liking. In words: Blueberry sensory panels; PLS analysis, overall liking (Table 7). As to conditions: response Overall Liking. On the procedure:
(§1) Sensory analysis was conducted similar to described above for tomatoes and strawberries in Examples 1 and 3. […] Panelists were trained with the scaling methods and were encouraged to return for the remainder of the study. Panelists rated overall liking, texture liking, sweetness, sourness, and flavor intensity using hedonic general Labeled Magnitude Scales (gLMS) (−100 to +100; −100=greatest disliking of any kind, +100=greatest liking of any kind) and intensity gLMS (0 to +100; 0=no sensation, 100=most intense sensation of any kind), which allow for improved comparison between panelists and between years (see Bartoshuk, L. M., et al., 2004 and Bartoshuk, L. M., et al., 2005). […] Ratings were recorded using Compusense software.
(§2) Soluble solids content (SSC), titratable acidity (TA), and volatiles were quantified as described above for tomato and strawberries. […] Elutions were run on an Agilent 7890A Gas Chromatograph Flame Ionization Detector (GC-FID) DB-5 column (30 m length×[…]) for quantification and on an Agilent 7890A Gas Chromatograph coupled to an Agilent 5977A Mass Selective Detector (GC/MSD) for qualification (Agilent, Santa Clara, Calif.). Integrated peak area of each signal was normalized for elution, fitted to relative pure chemical response, corrected for sample mass, and expressed as nanograms per gram fresh weight per hour (ng gFW-1 h-1). […]

Experiment [1] concerns blueberry flavor intensity. In words: Blueberry sensory panels; PLS analysis, blueberry flavor intensity (Table 7). As to conditions: response Flavor. The protocol: as §1, §2
Experiment [2] relates to perceived sweetness intensity. In words: Strawberry consumer panel; initial multiple regression of volatiles against perceived sweetness intensity independent of glucose, fructose or sucrose (Table 5). As to conditions: standard least squares; for FRUCTOSE t RATIO: sweetness intensity independent of fructose; for GLUCOSE t RATIO: sweetness intensity independent of glucose; for SUCROSE t RATIO: sweetness intensity independent of sucrose. The protocol:
Step-wise multiple regressions of all volatile compounds against perceived intensity of sweetness is performed independent of either glucose, fructose, or sucrose concentration, separately (Table 5).
At least 100 grams or seven berries of each sample were removed from 4° C. dark overnight storage prior to volatile collection. Samples were homogenized in a blender prior to splitting into three 15 gram replicates for immediate capturing of volatile emission and remainder of sample frozen in N2 (I) and stored at −80° C. for later sugar and acid quantification.
Oven temperatures programmed from 40° C. (0.5 min hold) at 5° C. min^−1 to 250° C. (4 min hold). Signals captured with a flame ionization detector (FID) at 280° C. Peaks from FID signal were integrated manually with Chemstation B.04.01 software (Agilent Technologies, Santa Clara, Calif.). Volatile emission (ng gFW^−1 h^−1) calculated based on individual peak area relative to sample elution standard peak area.
All consumer panels were approved by the University of Florida Institutional Review Board. […] Ages of panelist ranged from 18 to 71, with a median age of 24. Panelists self-classified themselves as 98 White or Caucasian, 11 Black or African-American, 1 Native American, Alaska Native or Aleutian, 41 Asian/Pacific Islander, and 15 Other. […] Fresh, fully-ripe strawberry fruit was removed from overnight 4° C. dark storage and allowed to warm to room temperature prior to sensory analysis. Each panelist was given one to two whole strawberries for evaluation, depending on cultivar availability. Panelist took a bite of each sample, chewed, and swallowed it. Ratings for overall liking and liking for texture were scaled on hedonic general labeled magnitude scale (gLMS) in the context of all pleasure/displeasure experiences. […] Scales were employed to mediate valid comparisons across subjects and sessions.
For the first analysis, individual volatile compound concentrations were regressed using the “enter” method in SPSS Statistics (IBM Corp, Armonk, N.Y., USA).

Experiment [3] relates to strawberry flavor intensity. Description: Strawberry consumer panel; correlation of volatiles with strawberry flavor intensity. On the procedure: Quantification of volatiles in an elution was performed on an Agilent 7890A Series gas chromatograph (GC) (carrier gas; He at 3.99 mL min^−1; splitless injector, temperature 220° C., injection volume 2 μl) equipped with a DB-5 column ((5%-Phenyl)-methylpolysiloxane, 30 m length×250 μm i.d.×1 μm film thickness; Agilent Technologies, Santa Clara, Calif., USA). Oven temperatures programmed from 40° C. (0.5 min hold) at 5° C. min^−1 to 250° C. (4 min hold). Signals captured with a flame ionization detector (FID) at 280° C. Peaks from FID signal were integrated manually with Chemstation B.04.01 software (Agilent Technologies, Santa Clara, Calif.). Volatile emission (ng gFW^−1 h^−1) calculated based on individual peak area relative to sample elution standard peak area. GC-Mass Spectrometry (MS) analysis of elution on an Agilent 6890N GC in tandem with an Agilent 5975 MS (Agilent Technologies, Santa Clara, Calif., USA) and retention time comparison with authentic standards (Sigma Aldrich, St Louis, Mo., USA) for volatile identification (Schmelz, 2001).
All consumer panels were approved by the University of Florida Institutional Review Board. Over the course of two annual seasons 166 strawberry consumers (58 male, 108 female) were recruited to evaluate strawberry cultivars. Ages of panelist ranged from 18 to 71, with a median age of 24. Panelists self-classified themselves as 98 White or Caucasian, 11 Black or African-American, 1 Native American, Alaska Native or Aleutian, 41 Asian/Pacific Islander, and 15 Other. An average of 106 (range of 98-113) panelists evaluated between three and five cultivars per session (Tieman, 2012). Fresh, fully-ripe strawberry fruit was removed from overnight 4° C. dark storage and allowed to warm to room temperature prior to sensory analysis. Each panelist was given one to two whole strawberries for evaluation, depending on cultivar availability. Panelist took a bite of each sample, chewed, and swallowed it. Ratings for overall liking and liking for texture were scaled on hedonic general labeled magnitude scale (gLMS) in the context of all pleasure/displeasure experiences. Perceived intensity of sweetness, sourness, and strawberry flavor were scaled in context of all sensory experiences using sensory gLMS (Bartoshuk, 2003; Bartoshuk, 2005; Tieman, 2012). Scales were employed to mediate valid comparisons across subjects and sessions.
Means and standard errors for consumer, physical, and metabolite measurements were determined from all replicates using JMP (Version 8. SAS Institute Inc., Cary, N.C., 1989-2008). Bivariate analysis among individual measurements of samples allowed for linear fit, which includes summary of fit, analysis of variance, t-test, and correlation analysis for density ellipse. […]

Here are results for eight molecules from patent US11744273B2, “Sweetness enhancing volatile compositions and methods of increasing perceived sweetness of a comestible” (University of Florida Research Foundation, Inc., priority 2016, dated 2023).

In the case of `CC12CCC(CC1)C(C)(C)O2` [1,8-Cineole], the “PLS Coefficient” value in the experiment with sweetness is recorded as −0.1925; in the experiment on sourness, 0.1444; with overall liking, −0.1912; in experiment [1] it was −0.0876.
For the molecule `CCCCCC(C)=O` [2-Heptanone], the “independent enhancement of perception of sweetness” value (“independent enhancement” below) with sweetness is on record as “independently enhancing perception of sweetness”.
Consider `CCCC(=O)OCC` [105-54-4], for which, in experiment [2], the “FRUCTOSE t RATIO” value is reported as 2.533, the “GLUCOSE t RATIO” value was 2.493 and the “SUCROSE t RATIO” value is listed as 0.034. In experiment [3], the “correlation with flavor intensity” value is given as “significant positive correlation with flavor intensity”.
With `CCCC(=O)OC` [623-42-7], in experiment [2], the “FRUCTOSE t RATIO” value is listed as 1.455, the “GLUCOSE t RATIO” value turned out to be 1.452 and the “SUCROSE t RATIO” value came out at 0.419. For the same molecule, the “correlation with flavor intensity” value in experiment [3] was “significant positive correlation with flavor intensity”.
With `COC1=C(C)OC(C)C1=O` (centres unmarked) [4077-47-8], in experiment [2], the “FRUCTOSE t RATIO” value turned out to be 2.414, the “GLUCOSE t RATIO” value came out at 2.185 and the “SUCROSE t RATIO” value was 0.299. Moreover, in experiment [3], the “correlation with flavor intensity” value is given as “significant positive correlation with flavor intensity”.
As to `C=CC(C)(O)CCC=C(C)C` (centres unmarked) [Linalool], the “correlation with flavor intensity” value in experiment [3] was “significant positive correlation with flavor intensity”.
On to `CC(C)=CCC/C(C)=C\C=O` [neral], for which the “independent enhancement” value in the experiment on sweetness is “independently enhancing perception of sweetness”.
For `C=C1CC[C@H]2O[C@]2(C)CC[C@@H]2[C@@H]1CC2(C)C` [β-Caryophyllene oxide, β-caryophyllene oxide], the “independent enhancement” value in the experiment on sweetness is on record as “independently enhancing perception of sweetness”. In addition, the “PLS Coefficient” value with sweetness was 0.1418; with overall liking, 0.1455; in experiment [1], 0.1527.
